Measurements taken from patent US8252764B2, “Compositions and methods of use of targeting peptides against placenta and adipose tissues” (priority 2000, dated 2012).
Peptide text beside a SMILES is read from it.

How the values were obtained:
SK-RC-49/APA cells = assay: Phage binding specificity assay on SK-RC-49/APA cells; assay type: cell-based; conditions: soluble peptide
Description: The cell binding assay was performed with an input of 10^9 TU as described for the cell panning. The specificity was confirmed by adding […] (SEQ ID NO:56) peptide to the binding medium in increasing concentrations. For phage binding on immunocaptured APA, wells were blocked for 1 h at room temperature with PBS/3% BSA and incubated with 10^9 TU for 1 h at room temperature in 50 μl PBS/3% BSA. After eight washes in PBS/1% BSA/0.01% Tween-20 and two washes in PBS, phage were rescued by adding 200 μl of exponentially growing K91Kan E. coli. Each experiment was repeated at least three times.

HUVECs [1] = assay: HUVEC cell growth assay (crystal violet); assay type: cell-based, human; conditions: 1 mM, VEGF-A (10 ng/ml)
Description: FIG. 34. […] (SEQ ID NO:56) inhibits HUVEC proliferation. Cells were stimulated with VEGF-A (10 ng/ml), and growth was evaluated at the indicated times by a colorimetric assay based on crystal violet staining. Error bars are the standard error of the means of triplicate wells. Each experiment was repeated at least twice with similar results.
HUVECs were seeded in 48-well plates (10^4 cells/well) and allowed to attach for 24 h in complete M199 medium. The cells were then starved in M199 medium containing 2% FCS for 24 h. […] (SEQ ID NO:56) or control […] (SEQ ID NO:57) peptide (1 mM) was added to the wells in medium containing 2% FCS and 10 ng/ml VEGF-A (R&D System, Abingdom, UK). After incubation for the indicated times, cells were fixed in 2.5% glutaraldehyde, stained with 0.1% crystal violet in 20% methanol, and solubilized in 10% acetic acid. All treatments were done in triplicate. Cell growth was evaluated by measuring the O.D. at 590 nm in a microplate reader (Bio-Rad Laboratories, Hercules, Calif.). A calibration curve was established and a linear correlation between O.D. and cell counts was observed between 10^3 and 10^5 cells.

HUVECs [2] = assay: Three-dimensional cell culture on Matrigel; assay type: cell-based, human; conditions: HUVECs on three-dimensional matrix gel, not shown
Description: Matrigel (Collaborative Research, Bedford, Mass.) was added at 100 μl per well to 48-well tissue culture plates and allowed to solidify for 10 min at 37° C. HUVECs were starved for 24 h in M199 medium supplemented with 2% FCS before being harvested in PBS containing 2.5 mM EDTA. 10^4 cells were gently added to each of the triplicate wells and allowed to adhere to the gel coating for 30 min at 37° C. Then, medium was replaced with indicated concentrations of […] (SEQ ID NO:56) or […] (SEQ ID NO:57) peptides in complete medium. The plates were photographed after 24 h with an inverted microscope (Canon). The assay was repeated three times.

Aminopeptidase A (APA) = target: T1, Aminopeptidase A (APA) (Homo sapiens, UniProt Q07075); assay: APA enzyme assay; assay type: biochemical
T1 construct: transfected with an expression vector encoding full-length APA cDNA; expressed in transfected cells; host or cells: SK-RC-49 renal carcinoma cells, stably transfected (SK-RC-49/APA)
T1 sequence (Q07075 whole entry): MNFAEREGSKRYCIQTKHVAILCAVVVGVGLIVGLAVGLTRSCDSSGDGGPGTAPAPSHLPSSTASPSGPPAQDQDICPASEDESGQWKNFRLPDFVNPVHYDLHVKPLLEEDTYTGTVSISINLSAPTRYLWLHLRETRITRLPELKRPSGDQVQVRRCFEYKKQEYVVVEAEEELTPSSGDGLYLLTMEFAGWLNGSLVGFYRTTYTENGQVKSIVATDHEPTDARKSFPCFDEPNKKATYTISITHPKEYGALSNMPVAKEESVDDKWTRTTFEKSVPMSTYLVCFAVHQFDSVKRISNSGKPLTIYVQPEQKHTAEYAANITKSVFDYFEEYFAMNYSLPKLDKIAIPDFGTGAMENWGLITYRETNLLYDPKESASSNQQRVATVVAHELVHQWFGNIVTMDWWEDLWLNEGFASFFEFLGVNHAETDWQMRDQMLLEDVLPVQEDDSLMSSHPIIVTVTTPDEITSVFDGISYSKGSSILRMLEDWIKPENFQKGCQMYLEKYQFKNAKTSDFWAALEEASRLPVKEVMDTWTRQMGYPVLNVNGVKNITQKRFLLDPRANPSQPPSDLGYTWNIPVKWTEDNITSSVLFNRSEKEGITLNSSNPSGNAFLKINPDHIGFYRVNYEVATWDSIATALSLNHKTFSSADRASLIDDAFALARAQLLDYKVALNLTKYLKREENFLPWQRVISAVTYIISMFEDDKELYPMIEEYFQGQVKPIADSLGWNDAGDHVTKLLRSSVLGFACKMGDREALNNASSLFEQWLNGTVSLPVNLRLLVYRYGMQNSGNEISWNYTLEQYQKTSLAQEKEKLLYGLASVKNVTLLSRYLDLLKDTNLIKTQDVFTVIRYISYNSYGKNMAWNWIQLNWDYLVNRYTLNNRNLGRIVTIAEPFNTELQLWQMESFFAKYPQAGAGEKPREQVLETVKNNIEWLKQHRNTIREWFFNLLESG

[3] = tested on: chicken chorioallantoic membrane (CAM); assay: CAM assay for angiogenesis; assay type: in vivo
Description: In vivo angiogenesis was evaluated by a CAM assay (Ribatti et al., 1994). Fertilized eggs from White Leghorn chickens were maintained in constant humidity at 37° C. On the third day of incubation, a square window was opened in the eggshell and 2-3 ml of albumen was removed to detach the developing CAM from the shell. The window was sealed with a glass plate of the same size and the eggs were returned to the incubator. At day 8, 1 mm^3 sterilized gelatin sponges (Gelfoam, Upjohn Co, Kalamazoo, […]) were adsorbed with VEGF-A (20 ng, R&D System) and either […] (SEQ ID NO:56) or control […] (SEQ ID NO:57) peptide (1 mM) in 3 μl PBS and implanted on the top of the growing CAMs under sterile conditions. CAMs were examined daily until day 12 and photographed in ovo with a Leica stereomicroscope. Capillaries emerging from the sponge were counted. The assay was repeated twice.

aminopeptidase N = aminopeptidase N (Homo sapiens, UniProt P15144); assay: Aminopeptidase N activity; assay type: biochemical; conditions: data not shown
Chain of aminopeptidase N (P15144 whole entry, species assumed): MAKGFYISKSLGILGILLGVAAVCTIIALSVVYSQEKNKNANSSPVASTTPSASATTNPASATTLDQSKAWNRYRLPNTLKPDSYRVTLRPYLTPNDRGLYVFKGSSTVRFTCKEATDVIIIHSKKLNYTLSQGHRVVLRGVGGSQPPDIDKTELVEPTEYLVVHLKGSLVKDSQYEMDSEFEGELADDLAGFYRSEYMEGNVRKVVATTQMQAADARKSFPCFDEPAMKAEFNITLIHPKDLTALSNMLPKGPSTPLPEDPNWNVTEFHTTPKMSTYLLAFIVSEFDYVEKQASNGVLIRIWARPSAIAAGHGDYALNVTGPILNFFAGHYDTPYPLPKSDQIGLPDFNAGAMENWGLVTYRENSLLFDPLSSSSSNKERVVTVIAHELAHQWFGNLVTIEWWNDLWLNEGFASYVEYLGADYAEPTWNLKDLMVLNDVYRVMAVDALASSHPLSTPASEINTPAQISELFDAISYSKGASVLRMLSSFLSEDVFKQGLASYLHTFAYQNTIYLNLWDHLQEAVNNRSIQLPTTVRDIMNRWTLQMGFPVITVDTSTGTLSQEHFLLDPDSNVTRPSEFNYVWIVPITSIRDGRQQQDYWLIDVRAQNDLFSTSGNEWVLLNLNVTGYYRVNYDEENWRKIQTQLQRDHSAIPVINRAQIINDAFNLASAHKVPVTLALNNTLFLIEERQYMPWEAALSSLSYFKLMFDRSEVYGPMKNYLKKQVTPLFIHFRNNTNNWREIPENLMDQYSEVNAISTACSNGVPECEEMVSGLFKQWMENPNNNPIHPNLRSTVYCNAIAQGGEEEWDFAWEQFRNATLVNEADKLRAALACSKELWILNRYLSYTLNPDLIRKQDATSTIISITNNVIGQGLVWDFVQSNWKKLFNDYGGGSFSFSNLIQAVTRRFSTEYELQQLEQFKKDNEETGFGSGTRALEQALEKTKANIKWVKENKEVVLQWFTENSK

HUVECs [4] = assay: HUVEC chemotaxis assay (Boyden chamber); assay type: cell-based, human; conditions: 1 mM, VEGF-A (10 ng/ml), Boyden chamber
Description: FIG. 33. […] (SEQ ID NO:56) inhibits HUVEC migration. HUVECs were stimulated with VEGF-A (10 ng/ml). The assay was performed in a Boyden microchemotaxis chamber, and cells were allowed to migrate through an 8-μm pore filter for 5 h at 37° C. […] (SEQ ID NO:57) (control) and […] (SEQ ID NO:56) peptides were tested at 1 mM concentration. Migrated cells were stained and five high-power fields (magnitude 100×) for each microwell were counted. Error bars are the standard error of the means of triplicate microwells.
A cell migration assay was performed in a 48-well microchemotaxis chamber (NeuroProbe, Gaithersburg, Md.) according to Bussolini et al. (1995). Polyvinylpyrrolidone-free polycarbonate filters (Nucleopore, Cambridge, Mass.) with 8-μm pores were coated with 1% gelatin for 10 min at room temperature and equilibrated in M199 medium supplemented with 2% FCS. […] (SEQ ID NO:56) or control […] (SEQ ID NO:57) peptide (1 mM) was placed in the lower compartment of a Boyden chamber in M199 medium supplemented with 2% FCS and 10 ng/ml VEGF-A (R&D System). Subconfluent cultures that had been starved overnight were harvested in PBS containing 2.5 mM EDTA, washed once in PBS, and resuspended in M199 medium containing 2% FCS at a final concentration of 2×10^6 cells/ml. […] Five random high-power fields (magnitude 100×) were counted in each well. […]

CC[C@H](C)[C@H](NC(=O)[C@H](CO)NC(=O)[C@H](CCC(=O)O)NC(=O)[C@H](CS)NC(=O)[C@H](CCC(=O)O)NC(=O)[C@H](CCCNC(=N)N)NC(=O)[C@@H]1CCCN1C(=O)[C@@H](N)CS)C(=O)N[C@@H](CS)C(=O)O (H-CPRECESIC-OH)
effect on binding of CYNLCIRECESICGADGACWTWCADGCSRSC phage (SK-RC-49/APA cells; data not shown): displaced | competition with CPKVCPRECESNC phage for binding to SK-RC-49/APA cells (SK-RC-49/APA cells; not shown): competed | inhibition of cell proliferation (HUVECs [1]): 50% | formation of capillary-like network (HUVECs [2]): progressive impairment of the formation of this network | IC50 (Aminopeptidase A (APA); SK-RC-49/APA cells, α-glutamyl-p-nitroanilide, 2 h at 37° C., read-out: IC50 for APA enzyme inhibition): 800 µM | reduction of APA enzyme activity (Aminopeptidase A (APA); at the highest concentration tested): 60% | inhibition of neovascularization induced by VEGF-A ([3]; 1 mM, number of capillaries emerging from the sponge): 40% | BLOOD VESSEL NUMBERS ([3]; VEGF-A 20 ng, peptide 1 mM, mean and standard error, two experiments): 5.5 ± 1.41 | effect on aminopeptidase N activity (aminopeptidase N): did not affect the activity | inhibition of chemotaxis of HUVECs (HUVECs [4]): 70%
